# Legend:
# NL4-3 (V38A/N42T) = format: cell-based, HIV-1; settings: T20-resistant (R) virus, MT-2 cells, p24, fourth day; read-out: IC50 (Mean ± SD)
# Procedure: (§1) Two T20-sensitive and five T20-resistant strains with well defined genetic mutations conferring the resistance were used in this experiment (Rimsky, L. T., et al. J.VIROL. 1998; 72: 986-993). Briefly, 1×10^4 MT-2 cells were infected with HIV-1 isolates at 100 TCID50 (50% tissue culture infective dose) in 200 μl RPMI 1640 medium containing 10% FBS in the presence or absence of FS-01 at graded concentrations overnight. Then the culture supernatants were removed and fresh media without FS-01 were added. On the fourth day post-infection, 100 μl of culture supernatants were collected from each well, mixed with equal volumes of 5% Triton X-100 and assayed for p24 antigen by ELISA.
# NL4-3 (parental) = format: cell-based, HIV-1; settings: T20-sensitive (S) virus, MT-2 cells, p24, fourth day; read-out: IC50 (Mean ± SD)
# Procedure: as §1
# NL4-3 (V38A) = format: cell-based, HIV-1; settings: T20-resistant (R) virus, MT-2 cells, p24, fourth day; read-out: IC50 (Mean ± SD)
# Procedure: as §1
# NL4-3 (V38E/N42S) = format: cell-based, HIV-1; settings: T20-resistant (R) virus, MT-2 cells, p24, fourth day; read-out: IC50 (Mean ± SD)
# Procedure: as §1
# NL4-3 (N42S) = format: cell-based, HIV-1; settings: T20-sensitive (S) virus, MT-2 cells, p24, fourth day; read-out: IC50 (Mean ± SD)
# Procedure: as §1
# NL4-3 (V38A/N42D) = format: cell-based, HIV-1; settings: T20-resistant (R) virus, MT-2 cells, p24, fourth day; read-out: IC50 (Mean ± SD)
# Procedure: as §1
# NL4-3 (N42T/N43K) = format: cell-based, HIV-1; settings: T20-resistant (R) virus, MT-2 cells, p24, fourth day; read-out: IC50 (Mean ± SD)
# Procedure: as §1
# [1] = system: HIV-1IIIB-mediated cell-cell fusion (H9/HIV-1IIIB-infected cells with MT-2 cells); test: Dye transfer assay of HIV-1 mediated cell-cell fusion; format: cell-based; settings: 37° C. for 2 h; read-out: IC50, inhibition of cell-cell fusion
# Procedure: A dye transfer assay was used for detection of HIV-1 mediated cell-cell fusion as previously described in (Jiang, S., et al. Antimicrob.Agents Chemother. 2004; 48: 4349-4359. In brief, H9/HIV-1IIIB-infected cells were labeled with a fluorescent reagent, Calcein-AM (Molecular Probes, Inc., Eugene, OR) and then incubated with MT-2 cells (ratio =1:5) in 96-well plates at 37° C. for 2 h in the presence or absence of peptides. The fused and unfused calcein-labeled HIV-1-infected cells were counted under an inverted fluorescence microscope (Zeiss, Germany) with an eyepiece micrometer disc. The inhibition percent of cell-cell fusion and the IC50 values were calculated as described. […] The inhibitory activity of FS-01 on HIV-1-mediated infection was conducted too.
# POPC LUVs = test: Isothermal titration calorimetry (ITC), peptide-lipid binding; settings: LUVs injected into peptide solution
# Procedure: So, the POPC LUV liposome system was employing to investigate the binding activity of FS-01 to lipid membranes. Large unilamellar vesicles (LUVs) of 1-palmitoyl-2-oleoyl-sn-glycero-3-phosphocholine (POPC) liposome were prepared as previously described (Liu, S., et al. J.BIOL.CHEM. 2007; 282: 9612-9620). Briefly, 20 mg of POPC stock solution was dried under a stream of nitrogen and stored in vacuum overnight to completely remove trace amounts of organic solvent. The dried lipid film was suspended by vortexing in 2 mL PBS buffer. The resultant multilamellar vesicle suspension was freeze-thawed for 5 cycles and then successively extruded through two stacked polycarbonate filters (0.1 μm) 13 times using an Avanti miniextruder.
# Solutions were degassed under vacuum prior to use. LUVs of POPC were injected into the chamber containing a peptide solution or buffer only (as a control). The heats generated in control experiments by injecting lipid vesicles into buffer without a peptide were subtracted from the heats produced in the corresponding peptide-lipid binding experiments. Data acquisition and analyses were performed using MicroCal's Origin software (Version 7.0).
# 94UG103 (clade A, X4R5) = test: Primary HIV-1 isolate infection of PBMC, p24 ELISA; format: cell-based; settings: p24 production, 7 days post infection
# Procedure: (§2) The inhibitory activity of FS-01 against primary HIV-1 isolates was determined as previously described in (Jiang, S., et al. ANTIMICROB. AGENTS CHEMOTHER. 2004; 48: 4349-4359. The peripheral blood mononuclear cells (PBMC) were isolated from the blood of healthy donors using a standard density gradient (Histopaque-1077, Sigma) centrifugation. The cells were plated in 75-cm plastic flasks and incubated at 37° C. for 2 h. The nonadherent cells were collected and resuspended at 5×10^5/mL in RPMI 1640 medium containing 10% FBS, 5 μg of phytohemagglutinin (PHA)/mL, and 100 U of interleukin-2/mL, followed by incubation at 37° C. for 3 days. The PHA-stimulated cells were infected with the corresponding primary HIV-1 isolates at a multiplicity of infection (MOI) of 0.01 in the absence or presence of FS-01 at graded concentrations. Culture media were changed every 3 days. The supernatants were collected 7 days post infection and tested for p24 antigen by ELISA. The percent inhibition of p24 production and IC50/IC90 values were calculated.
# 92US657 (clade B, R5) = test: Primary HIV-1 isolate infection of PBMC, p24 ELISA; format: cell-based; settings: p24 production, 7 days post infection
# Procedure: as §2
# 92UG001 (clade D, X4R5) = test: Primary HIV-1 isolate infection of PBMC, p24 ELISA; format: cell-based; settings: p24 production, 7 days post infection
# Procedure: as §2
# 93BR020 (clade F, X4R5) = test: Primary HIV-1 isolate infection of PBMC, p24 ELISA; format: cell-based; settings: p24 production, 7 days post infection
# Procedure: as §2
# 92TH009 (clade E, R5) = test: Primary HIV-1 isolate infection of PBMC, p24 ELISA; format: cell-based; settings: p24 production, 7 days post infection
# Procedure: as §2
# 93IN101 (clade C, R5) = test: Primary HIV-1 isolate infection of PBMC, p24 ELISA; format: cell-based; settings: p24 production, 7 days post infection
# Procedure: as §2
substance,measurement,setting,value
enfuvirtide,IC50,NL4-3 (V38A/N42T),> 2000 nM
same,IC50,NL4-3 (parental),22 ± 1.19 nM
same,IC50,NL4-3 (V38A),> 2000 nM
same,IC50,NL4-3 (V38E/N42S),> 2000 nM
same,IC50,NL4-3 (N42S),26.9 ± 13 nM
same,IC50,NL4-3 (V38A/N42D),> 2000 nM
same,IC50,NL4-3 (N42T/N43K),> 2000 nM
same,IC50,[1],21.4 nM
same,binding constant to POPC LUVs,POPC LUVs,about 5×10^4 M^−1
same,IC50,"94UG103 (clade A, X4R5); read-out: IC50 (Mean ± SD)",83.8 ± 12.1 nM
same,IC90,"94UG103 (clade A, X4R5); read-out: IC90 (Mean ± SD)",151 ± 8.8 nM
same,IC50,"92US657 (clade B, R5); read-out: IC50 (Mean ± SD)",41.5 ± 8.76 nM
same,IC90,"92US657 (clade B, R5); read-out: IC90 (Mean ± SD)",177 ± 15.9 nM
same,IC50,"92UG001 (clade D, X4R5); read-out: IC50 (Mean ± SD)",185 ± 23.3 nM
same,IC90,"92UG001 (clade D, X4R5); read-out: IC90 (Mean ± SD)",501 ± 70.8 nM
same,IC50,"93BR020 (clade F, X4R5); read-out: IC50 (Mean ± SD)",73.7 ± 8.57 nM
same,IC90,"93BR020 (clade F, X4R5); read-out: IC90 (Mean ± SD)",204 ± 28 nM
same,IC50,"92TH009 (clade E, R5); read-out: IC50 (Mean ± SD)",221 ± 58.3 nM
same,IC90,"92TH009 (clade E, R5); read-out: IC90 (Mean ± SD)",724 ± 56.6 nM
same,IC50,"93IN101 (clade C, R5); read-out: IC50 (Mean ± SD)",47.2 ± 4.73 nM
same,IC90,"93IN101 (clade C, R5); read-out: IC90 (Mean ± SD)",130 ± 16.8 nM

# Source: patent publication US20100021427A1, “Use of Antiviral Peptides For Treatment of Infections Caused by Drug-Resistant HIV” (Tianjin FusoGen Pharmaceuticals, Inc., priority 2008, published 2010)
